Results taken from paper PMC7695835, “Pharmacological characterisation of novel adenosine A3 receptor antagonists” (Scientific Reports, 2020).

Assays:
rat A3R = target: T1, rat A3R (Rattus norvegicus, UniProt P28647); experiment: NanoBRET ligand-binding, Nluc-rat A3R HEK 293 cells, AV039 tracer; conditions: for binding at rat A3R: no binding detected below the concentration of 10 μM; for pKi: rat A3R, 100 nM AV039, BRET ratio at 5 minutes, Cheng-Prusoff
T1 sequence (P28647 1-320): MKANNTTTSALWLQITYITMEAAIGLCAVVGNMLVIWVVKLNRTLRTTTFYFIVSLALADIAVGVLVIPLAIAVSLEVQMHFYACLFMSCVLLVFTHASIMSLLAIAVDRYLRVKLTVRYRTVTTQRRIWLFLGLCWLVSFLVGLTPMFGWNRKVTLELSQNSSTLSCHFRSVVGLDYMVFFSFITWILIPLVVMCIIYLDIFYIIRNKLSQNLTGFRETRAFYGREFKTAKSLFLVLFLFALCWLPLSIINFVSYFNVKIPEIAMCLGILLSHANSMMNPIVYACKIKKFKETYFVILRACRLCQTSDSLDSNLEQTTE

A1R = target: T2, A1R (Homo sapiens, UniProt P30542); design: method as in Lagarias et al.[19]; conditions: 1 nM [3H]CCPA; ref Lagarias et al.[19]; read-out: Radioligand binding Ki A1R; cited from earlier work
T2 construct: expressed in transfected cells
T2 sequence (P30542 1-326): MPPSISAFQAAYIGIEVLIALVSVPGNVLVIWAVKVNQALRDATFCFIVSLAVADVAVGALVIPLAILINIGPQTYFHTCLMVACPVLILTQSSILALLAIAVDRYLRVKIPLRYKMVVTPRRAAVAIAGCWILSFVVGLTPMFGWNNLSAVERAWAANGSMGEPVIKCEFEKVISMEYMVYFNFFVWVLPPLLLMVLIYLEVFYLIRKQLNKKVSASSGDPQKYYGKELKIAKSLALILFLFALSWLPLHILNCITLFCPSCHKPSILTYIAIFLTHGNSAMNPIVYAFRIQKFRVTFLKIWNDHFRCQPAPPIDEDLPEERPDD

A2AR = target: T3, A2AR (Homo sapiens, UniProt P29274); design: method as in Lagarias et al.[19]; conditions: 10 nM [3H]NECA; ref Lagarias et al.[19]; read-out: Radioligand binding Ki A2AR; cited from earlier work
T3 construct: expressed in transfected cells; host or cells: CHO cells, membrane preparation
T3 sequence (P29274 whole entry): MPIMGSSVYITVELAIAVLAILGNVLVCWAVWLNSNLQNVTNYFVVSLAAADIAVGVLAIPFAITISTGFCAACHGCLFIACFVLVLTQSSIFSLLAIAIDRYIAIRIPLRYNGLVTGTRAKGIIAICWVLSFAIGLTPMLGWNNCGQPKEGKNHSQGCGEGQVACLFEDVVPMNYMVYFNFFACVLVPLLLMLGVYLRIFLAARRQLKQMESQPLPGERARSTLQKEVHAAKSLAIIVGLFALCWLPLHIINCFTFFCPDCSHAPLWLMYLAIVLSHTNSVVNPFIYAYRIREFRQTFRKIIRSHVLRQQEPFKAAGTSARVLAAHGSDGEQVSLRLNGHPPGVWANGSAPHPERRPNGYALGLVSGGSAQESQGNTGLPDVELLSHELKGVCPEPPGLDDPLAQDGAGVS

A3R [1] = target: T4, A3R (Homo sapiens, UniProt P0DMS8); conditions: 1 nM [3H]HEMADO; ref Lagarias et al.[19]; read-out: Radioligand binding Ki A3R; cited from earlier work
T4 sequence (P0DMS8 1-318): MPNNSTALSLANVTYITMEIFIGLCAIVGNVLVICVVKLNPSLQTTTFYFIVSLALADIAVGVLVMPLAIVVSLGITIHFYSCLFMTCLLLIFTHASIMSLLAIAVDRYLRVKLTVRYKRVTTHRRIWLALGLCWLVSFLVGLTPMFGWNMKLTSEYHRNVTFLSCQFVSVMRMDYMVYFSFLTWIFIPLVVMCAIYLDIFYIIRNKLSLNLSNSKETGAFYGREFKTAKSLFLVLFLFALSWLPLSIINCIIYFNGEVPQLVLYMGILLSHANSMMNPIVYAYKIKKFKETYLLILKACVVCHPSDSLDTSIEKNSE

A3R [2] = target: T4, A3R; conditions: for outcome of cAMP-based screen: 1 μM compound; for cAMP accumulation Mean: 10 μM forskolin + NECA IC80 (3.16 nM) + 1 μM compound, mean ± SEM, n = 3; for cAMP accumulation Mean difference between 'NECA' and compound: 10 μM forskolin + NECA IC80 + 1 μM compound
A3R [3] = target: T4, A3R; experiment: NECA stimulated cAMP inhibition in A3R Flp-In CHO cells; assay type: cell-based; conditions: for Span: difference between Emin and basal; for Emin: lower plateau of NECA curve; for effect on NECA potency / antagonism: 1 μM compound; for effect on NECA potency / antagonism / effect on NECA potency: preliminary data; for Basal: upper plateau of NECA curve; for effect on NECA potency: 10 μM compound
A3R [4] = target: T4, A3R; experiment: HEMADO induced cAMP inhibition at the A3R; assay type: cell-based; conditions: HEMADO only
[5] = 1 µM compound + 10 µM forskolin only
[6] = 10 µM compound + 10 µM forskolin only

Question: Which Kd (rat A3R; read-out: KD (saturation binding), fluorescent tracer at Nluc-rat A3R) does the source give for `COc1ccc(-n2nc3c(NC(=O)CCC(=O)NCCOCCOCCNC(=O)CCCCCNC(=O)COc4ccc(/C=C/C5=[N+]6C(=Cc7ccc(-c8cccs8)n7[B-]6(F)F)C=C5)cc4)nc4ccccc4n3c2=O)cc1` [AV039, reference compound] here?
Answer: 0.102 ± 0.00759 µM

Question: Which Ki (A1R) does the source give for `Cc1onc(-c2ccccc2Cl)c1C(=O)O/N=C(\N)c1cccnc1` [Compound K10] here?
Answer: > 60 µM

Question: And the “binding at rat A3R” value (rat A3R)?
Answer: very weak binding

Question: And the pKi (rat A3R)?
Answer: 4.19 ± 0.09

Question: And the Ki (A2AR)?
Answer: > 60 µM

Question: For `Cc1nc(C(N)=NOC(=O)c2c(-c3ccccc3Cl)noc2C)cs1` [Compound K17], which Ki (A1R) is on record?
Answer: > 30 µM

Question: And the “binding at rat A3R” value (rat A3R)?
Answer: very weak binding

Question: And the pKi (rat A3R)?
Answer: 4.60 ± 0.09

Question: And the Ki (A2AR)?
Answer: > 60 µM

Question: Which results are given for `COc1cccc(C=NNC(=O)c2cc(-c3ccccc3)sc2N)c1` [Compound K21]?
Answer: Ki (A3R [1]): 5.77 µM; outcome of cAMP-based screen (A3R [2]): no activity; cAMP accumulation Mean (A3R [2]): 73.54 ±2.98 %10 μM forskolin response; cAMP accumulation Mean difference between 'NECA' and compound (A3R [2]): -13.22 %10 μM forskolin response; Ki (A1R): > 100 µM; True Basal (A3R [3]; [5]): 101.6 ±5.1; Span (A3R [3]; 1 µM compound): 119.4 ±9.4; Emin (A3R [3]; 1 µM compound): 2.0 ±7.6 % 10 µM forskolin response relative to NECA response; effect on NECA potency / antagonism (A3R [3]): no effect; Basal (A3R [3]; 1 µM compound): 121.5 ±6.1 % 10 µM forskolin inhibition, relative to NECA; True Basal (A3R [3]; [6]): 118.6 ±4.8; Span (A3R [3]; 10 µM compound): 104.6 ±7.7; Emin (A3R [3]; 10 µM compound): 30.1 ±6.8 % 10 µM forskolin response relative to NECA response; effect on NECA potency (A3R [3]): reduce the NECA potency; Basal (A3R [3]; 10 µM compound): 134.7 ±4.3 % 10 µM forskolin inhibition, relative to NECA; Ki (A2AR): 3.93 µM

Question: With `Nc1sc(-c2ccccc2)cc1C(=O)NN=Cc1ccccc1` [Compound K22] as the molecule, how does the Ki (A3R [1]) read?
Answer: 5.16 µM

Question: What about the “outcome of cAMP-based screen” value (A3R [2]) of the same molecule?
Answer: no activity

Question: And the “cAMP accumulation Mean” value (A3R [2])?
Answer: 70.56 ±3.64 %10 μM forskolin response

Question: And the “cAMP accumulation Mean difference between 'NECA' and compound” value (A3R [2])?
Answer: -10.24 %10 μM forskolin response

Question: What about the Ki (A1R) of the same molecule?
Answer: 15.2 µM

Question: What about the “True Basal” value (A3R [3]; [5]) of the same molecule?
Answer: 101.9 ±8.4

Question: What about the Span (A3R [3]; 1 µM compound) of the same molecule?
Answer: 120.9 ±8.8

Question: And the Emin (A3R [3]; 1 µM compound)?
Answer: 0.4 ±7.1 % 10 µM forskolin response relative to NECA response

Question: What about the “effect on NECA potency / antagonism” value (A3R [3]) of the same molecule?
Answer: no effect

Question: And the Basal (A3R [3]; 1 µM compound)?
Answer: 121.3 ±5.8 % 10 µM forskolin inhibition, relative to NECA

Question: And the “True Basal” value (A3R [3]; [6])?
Answer: 124.5 ±8.2

Question: What about the Span (A3R [3]; 10 µM compound) of the same molecule?
Answer: 97.5 ±8.0

Question: And the Emin (A3R [3]; 10 µM compound)?
Answer: 41.6 ±7.1 % 10 µM forskolin response relative to NECA response

Question: What about the “effect on NECA potency” value (A3R [3]) of the same molecule?
Answer: reduce the NECA potency

Question: What about the Basal (A3R [3]; 10 µM compound) of the same molecule?
Answer: 139.1 ±4.2 % 10 µM forskolin inhibition, relative to NECA

Question: What about the Ki (A2AR) of the same molecule?
Answer: 4.59 µM

Question: What does the source list for `CC(C)(C)c1ccc(/C(N)=N/OC(=O)c2cnn(-c3ccccc3)c2C(F)(F)F)cc1` [Compound K24]?
Answer: Ki (A3R [1]): 5.39 µM; outcome of cAMP-based screen (A3R [2]): no activity; cAMP accumulation Mean (A3R [2]): 51.39 ±3.11 %10 μM forskolin response; cAMP accumulation Mean difference between 'NECA' and compound (A3R [2]): 8.93 %10 μM forskolin response; Ki (A1R): 7.48 µM; True Basal (A3R [3]; [5]): 103.6 ±7.7; Span (A3R [3]; 1 µM compound): 103.7 ±7.9; Emin (A3R [3]; 1 µM compound): 5.9 ±6.5 % 10 µM forskolin response relative to NECA response; effect on NECA potency / antagonism (A3R [3]): no effect; Basal (A3R [3]; 1 µM compound): 109.5 ±4.9 % 10 µM forskolin inhibition, relative to NECA; True Basal (A3R [3]; [6]): 117.7 ±0.9; Span (A3R [3]; 10 µM compound): 107.4 ±5.7; Emin (A3R [3]; 10 µM compound): 23.4 ±4.5 % 10 µM forskolin response relative to NECA response; effect on NECA potency (A3R [3]): reduce the NECA potency; Basal (A3R [3]; 10 µM compound): 130.8 ±3.3 % 10 µM forskolin inhibition, relative to NECA; Ki (A2AR): > 100 µM

Question: Which Span (A3R [4]) does the source give for `CCCCC#Cc1nc(NC)c2ncn([C@@H]3O[C@H](CO)[C@@H](O)[C@H]3O)c2n1` [HEMADO, (2R,3R,4S,5R)-2-(2-hex-1-ynyl-6-methylaminopurin-9-yl)-5-(hydroxymethyl)oxolane-3,4-diol] here?
Answer: 107.3 ±4.7

Question: What about the IC50 (A3R [4]; 10 µM forskolin, n = 3, read-out: pIC50 of HEMADO (converted)) of the same molecule?
Answer: 0.0288 nM

Question: What about the Emin (A3R [4]; lower plateau) of the same molecule?
Answer: -3.48 ±2.7 % 10 µM forskolin response

Question: And the Basal (A3R [4]; upper plateau)?
Answer: 103.8 ±4.1
